# Read-outs that look alike come from different tables or passages of the source.
# Key:
# Eimeria acervulina = experiment: Example 1: chickens infected with Eimeria acervulina, feed test (growth, lesion, OPG, ACI); assay type: in vivo
# Description: Seven groups (30 chickens/group) of test chickens (type of chickens: chunky, one week of age, male) were prepared.
# The test chickens of the first to seventh groups are bred for 12 days by freely feeding the feeds (Table 4) obtained by adding the ingredients to the basal feed (100 mass %) shown in Table 1. The test chickens of the second to seventh groups excluding the first group were infected with oocysts of coccidial protozoa Eimeria acervulina in a ratio of 5.0×10^4 oocysts/chicken in an oral administration manner on the seventh day after the start of the breeding. Next, after the breeding was finished, the test chickens of the groups were dissected, and degrees of lesions in the duodenums were evaluated according to the following evaluation criteria. In addition, on the dissection day, feces of the groups were sampled, and the number of oocysts per gram of the feces (OPG) was measured. OPG scores were determined by OPG values according to the evaluation criteria as follow.
# Eimeria maxima = experiment: Example 2: chickens infected with Eimeria maxima, feed test (growth, OPG); assay type: in vivo
# Description: Three groups (20 chickens/group) of tested chickens (type of chickens: chunky, neonatal chick, male) were prepared.
# The test chickens of the eighth to tenth groups are bred for 28 days by freely feeding the feeds (Table 6) obtained by adding the ingredients to the basal feed (100 mass %) shown in Table 1. The test chickens of all the groups were infected with oocysts of coccidial protozoa Eimeria maxima in a ratio of 1.5×10^4 oocysts/chicken in an oral administration manner on the twenty-first day after the breeding. On each sixth to eighth day after the infection, the feces of the groups were sampled, and the number of oocysts per gram of the feces (OPG) was measured (as a three-day average value).
# clostridium perfringens = assay type: in vivo, chickens; settings: for Body weight, compared-group comparison / Body weight gain, compared-group comparison / Feed intake, compared-group comparison / Feed conversion ratio, compared-group comparison / Number of clostridium perfringens, compared-group comparison: index, Fifteenth Group = 100
molecule,measurement,setting,value
"CC[C@@H](C(=O)[C@@H](C)[C@@H](O)[C@H](C)[C@@H]1O[C@@H]([C@@H](CC)C(=O)O)CC[C@@H]1C)[C@H]1O[C@]2(C=C[C@@H](O)[C@]3(CC[C@@](C)([C@H]4CC[C@](O)(CC)[C@H](C)O4)O3)O2)[C@H](C)C[C@@H]1C [Third group, Salinomycine]",Average OPG score in feces D,"Eimeria acervulina; 0 to 40 points from OPG values per Table 3, average of three tested bodies in each group",33.3
same,ACI (anticoccidial indces),Eimeria acervulina; ACI = (A + B) − (10C + D),126
same,Relative ratio weight gain/initial weight (compared with First group) A,Eimeria acervulina; First group (non-infected basal feed) = 100,95.0%
same,Average final body weight,"Eimeria acervulina; after 12 days breeding, infected on day 7 with 5.0×10^4 oocysts/chicken",643 g
same,Feed conversion ratio,Eimeria acervulina; in vivo,1.32
same,Feed intake,Eimeria acervulina; in vivo,318 g/chicken
same,Survival ratio B,Eimeria acervulina; in vivo,100.0%
same,Weight gain/initial weight ratio,Eimeria acervulina; in vivo,60.1%
same,Body weight gain,Eimeria acervulina; initial to final weight,242 g/chicken
same,Average lesion score C,"Eimeria acervulina; lesion in duodenum, 0 to 4 points per Table 2",3.6
same,Body weight gain,Eimeria maxima; 28 days,1018 g/chicken
same,Feed conversion ratio,Eimeria maxima; 28 days,1.50
same,Feed intake,Eimeria maxima; 28 days,1525 g/chicken
same,Final body weight,"Eimeria maxima; 28 days breeding, infected day 21 with 1.5×10^4 oocysts/chicken",1054 g/chicken
same,Maxima OPG,Eimeria maxima; average on the 6 to 8 days after infection,"3.1 10,000 oocysts/g of feces"
same,Growth ratio,Eimeria maxima; in vivo,100(100) %
same,"Final body weight, compared-group comparison","Eimeria maxima; index, Eighth Group (basal feed) = 100",117
same,"Body weight gain, compared-group comparison","Eimeria maxima; index, Eighth Group = 100",117
same,"Feed conversion ratio, compared-group comparison","Eimeria maxima; index, Eighth Group = 100",94
same,"Feed intake, compared-group comparison","Eimeria maxima; index, Eighth Group = 100",110
same,"Growth ratio, compared-group comparison","Eimeria maxima; index, Eighth Group = 100",100(100)
same,"Maxima OPG, compared-group comparison","Eimeria maxima; index, Eighth Group = 100",18
enramycin [Sixteenth Group],Body weight gain,clostridium perfringens; 1 week,96 g/chicken
same,Feed intake,clostridium perfringens; 1 week,118 g/chicken
same,Body weight,"clostridium perfringens; 1 week of age, basal feed with 30% rye",136 g/chicken
same,"Body weight, compared-group comparison",clostridium perfringens; 1 week of age,114
same,"Body weight gain, compared-group comparison",clostridium perfringens; 1 week,121
same,"Feed intake, compared-group comparison",clostridium perfringens; 1 week,107
same,Body weight gain,clostridium perfringens; 2 weeks,220 g/chicken
same,Feed intake,clostridium perfringens; 2 weeks,323 g/chicken
same,Body weight,clostridium perfringens; 2 weeks of age,356 g/chicken
same,"Body weight, compared-group comparison",clostridium perfringens; 2 weeks of age,124
same,"Body weight gain, compared-group comparison",clostridium perfringens; 2 weeks,132
same,"Feed intake, compared-group comparison",clostridium perfringens; 2 weeks,140
same,Body weight gain,clostridium perfringens; 3 weeks,345 g/chicken
same,Feed intake,clostridium perfringens; 3 weeks,510 g/chicken
same,Body weight,clostridium perfringens; 3 weeks of age,700 g/chicken
same,"Body weight, compared-group comparison",clostridium perfringens; 3 weeks of age,130
same,"Body weight gain, compared-group comparison",clostridium perfringens; 3 weeks,135
same,"Feed intake, compared-group comparison",clostridium perfringens; 3 weeks,124
same,Feed conversion ratio,clostridium perfringens; First week,1.23
same,Number of clostridium perfringens,"clostridium perfringens; First week, cloacal swab",2.0 LogCFU/g
same,"Feed conversion ratio, compared-group comparison",clostridium perfringens; First week,89
same,"Number of clostridium perfringens, compared-group comparison",clostridium perfringens; First week,34
same,Feed conversion ratio,clostridium perfringens; Second week,1.47
same,Number of clostridium perfringens,"clostridium perfringens; Second week, cloacal swab",2.0 LogCFU/g
same,"Feed conversion ratio, compared-group comparison",clostridium perfringens; Second week,106
same,"Number of clostridium perfringens, compared-group comparison",clostridium perfringens; Second week,47
same,Feed conversion ratio,clostridium perfringens; Third week,1.48
same,Number of clostridium perfringens,"clostridium perfringens; Third week, cloacal swab",2.0 LogCFU/g
same,"Feed conversion ratio, compared-group comparison",clostridium perfringens; Third week,91
same,"Number of clostridium perfringens, compared-group comparison",clostridium perfringens; Third week,41
same,Feed conversion ratio,clostridium perfringens; Total,1.44
same,Body weight gain,clostridium perfringens; Total (21 days),660 g/chicken
same,Feed intake,clostridium perfringens; Total (21 days),950 g/chicken
same,Number of clostridium perfringens,clostridium perfringens; Total (no unit printed in this row; weekly rows in LogCFU/g),2.0
same,"Body weight gain, compared-group comparison",clostridium perfringens; Total,132
same,"Feed conversion ratio, compared-group comparison",clostridium perfringens; Total,96
same,"Feed intake, compared-group comparison",clostridium perfringens; Total,126
same,"Number of clostridium perfringens, compared-group comparison",clostridium perfringens; Total,40

# — US20080160000A1 (priority 2006, published 2008)
